# Laboratory results reported in PubChem BioAssay (NCI).
#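 Briefly, cells in 96-well plates were exposed to five compound concentrations for 48 h, and endpoints were estimated by linear interpolation. GI50: concentration for 50% inhibition of growth. TGI is the concentration that stops growth completely.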
# Legend:
# Experiment in all cases: NCI anticancer screen, dose series, 48 h
# [1] = test system: 786-0 renal
# [2] = test system: A498 renal
# [3] = test system: A549 NSCLC
# [4] = test system: ACHN renal
# [5] = test system: CAKI-1 renal
# [6] = test system: CCRF-CEM leukemia
# [7] = test system: COLO 205 colon
# [8] = test system: DU-145 prostate
# [9] = test system: EKVX NSCLC
# [10] = test system: HCC-2998 colon
# [11] = test system: HCT-116 colon
# [12] = test system: HCT-15 colon
# [13] = test system: HL-60(TB) leukemia
# [14] = test system: HOP-62 NSCLC
# [15] = test system: HOP-92 NSCLC
# [16] = test system: HS 578T breast
# [17] = test system: HT29 colon
# [18] = test system: IGROV1 ovarian
# [19] = test system: K-562 leukemia
# [20] = test system: KM12 colon
# [21] = test system: LOX IMVI melanoma
# [22] = test system: M14 melanoma
# [23] = test system: MALME-3M melanoma
# [24] = test system: MCF7 breast
# [25] = test system: MDA-MB-231 breast
# [26] = test system: MDA-MB-435
# [27] = test system: MDA-MB-468 breast
# [28] = test system: MOLT-4 leukemia
# [29] = test system: NCI-H226 lung
# [30] = test system: NCI-H23 lung
# [31] = test system: NCI-H460 lung
# [32] = test system: NCI-H522 lung
# [33] = test system: OVCAR-3 ovarian
# [34] = test system: OVCAR-4 ovarian
# [35] = test system: OVCAR-5 ovarian
# [36] = test system: OVCAR-8 ovarian
# [37] = test system: PC-3 prostate
# [38] = test system: RPMI-8226 leukemia
# [39] = test system: RXF 393 renal
# [40] = test system: SF-268 CNS
# [41] = test system: SF-295 CNS
# [42] = test system: SF-539 CNS
# [43] = test system: SK-MEL-2 melanoma
# [44] = test system: SK-MEL-28 melanoma
# [45] = test system: SK-MEL-5 melanoma
# [46] = test system: SK-OV-3 ovarian
# [47] = test system: SN12C renal
# [48] = test system: SNB-19 CNS
# [49] = test system: SNB-75 CNS
# [50] = test system: SR leukemia
# [51] = test system: SW-620 colon
# [52] = test system: T-47D breast
# [53] = test system: TK-10 renal
# [54] = test system: U251 CNS
# [55] = test system: UACC-257 melanoma
# [56] = test system: UACC-62 melanoma
# [57] = test system: UO-31 renal
# [58] = test system: BT-549 breast
compound,measurement,setting,value
CN1CCCN(Cc2ccc(C(=O)Nc3cccc(Nc4ccc5cc(O)ccc5n4)c3)cc2C(F)(F)F)CC1,GI50,[1],16 µM
same,TGI,[1],30.1 µM
same,GI50,[2],17.6 µM
same,TGI,[2],32 µM
same,GI50,[3],16.2 µM
same,TGI,[3],33.1 µM
same,GI50,[4],19.7 µM
same,TGI,[4],38.4 µM
same,GI50,[5],14.1 µM
same,TGI,[5],27.8 µM
same,GI50,[6],4.94 µM
same,TGI,[6],25.7 µM
same,GI50,[7],18.5 µM
same,TGI,[7],33.3 µM
same,GI50,[8],16.9 µM
same,TGI,[8],30.6 µM
same,GI50,[9],16 µM
same,TGI,[9],31.3 µM
same,GI50,[10],16.5 µM
same,TGI,[10],30.5 µM
same,GI50,[11],6.51 µM
same,TGI,[11],22.1 µM
same,GI50,[12],16.4 µM
same,TGI,[12],33.9 µM
same,GI50,[13],11.9 µM
same,TGI,[13],31.8 µM
same,GI50,[14],17.8 µM
same,TGI,[14],31.8 µM
same,GI50,[15],10.4 µM
same,TGI,[15],23.3 µM
same,GI50,[16],14.8 µM
same,TGI,[16],50.2 µM
same,GI50,[17],13.3 µM
same,TGI,[17],28.8 µM
same,GI50,[18],17.2 µM
same,TGI,[18],32 µM
same,GI50,[19],1.18 µM
same,TGI,[19],4.54 µM
same,GI50,[20],14.1 µM
same,TGI,[20],28.1 µM
same,GI50,[21],12.1 µM
same,TGI,[21],25 µM
same,GI50,[22],12.7 µM
same,TGI,[22],27.8 µM
same,GI50,[23],12.6 µM
same,TGI,[23],25.6 µM
same,GI50,[24],9.83 µM
same,TGI,[24],24.7 µM
same,GI50,[25],13.9 µM
same,TGI,[25],27.5 µM
same,GI50,[26],10.4 µM
same,TGI,[26],22.1 µM
same,GI50,[27],8.88 µM
same,TGI,[27],21.6 µM
same,GI50,[28],2.05 µM
same,TGI,[28],14.5 µM
same,GI50,[29],13.8 µM
same,TGI,[29],28.9 µM
same,GI50,[30],16.8 µM
same,TGI,[30],32.1 µM
same,GI50,[31],18 µM
same,TGI,[31],36.7 µM
same,GI50,[32],17 µM
same,TGI,[32],32 µM
same,GI50,[33],16.3 µM
same,TGI,[33],29.9 µM
same,GI50,[34],15 µM
same,TGI,[34],30 µM
same,GI50,[35],15.3 µM
same,TGI,[35],31 µM
same,GI50,[36],18.9 µM
same,TGI,[36],37.2 µM
same,GI50,[37],13.1 µM
same,TGI,[37],28.5 µM
same,GI50,[38],11.4 µM
same,TGI,[38],35.9 µM
same,GI50,[39],12.5 µM
same,TGI,[39],26.1 µM
same,GI50,[40],17.3 µM
same,TGI,[40],36.1 µM
same,GI50,[41],17.3 µM
same,TGI,[41],33.4 µM
same,GI50,[42],11.3 µM
same,TGI,[42],24 µM
same,GI50,[43],17.2 µM
same,TGI,[43],31.8 µM
same,GI50,[44],13.9 µM
same,TGI,[44],29 µM
same,GI50,[45],16.1 µM
same,TGI,[45],29.6 µM
same,GI50,[46],17.6 µM
same,TGI,[46],32 µM
same,GI50,[47],17.3 µM
same,TGI,[47],31.7 µM
same,GI50,[48],17 µM
same,TGI,[48],31.7 µM
same,GI50,[49],1.17 µM
same,TGI,[49],16.7 µM
same,GI50,[50],1.89 µM
same,TGI,[50],5.3 µM
same,GI50,[51],14.5 µM
same,TGI,[51],28.9 µM
same,GI50,[52],15.8 µM
same,TGI,[52],33.3 µM
same,GI50,[53],18.5 µM
same,TGI,[53],32.8 µM
same,GI50,[54],14.8 µM
same,TGI,[54],30.6 µM
same,GI50,[55],14.7 µM
same,TGI,[55],29.1 µM
same,GI50,[56],15.9 µM
same,TGI,[56],30 µM
same,GI50,[57],15.2 µM
same,TGI,[57],29.7 µM
COc1ccc(N=Nc2c(N)nn3c(N)c(C#N)c(-c4ccccc4)nc23)cc1,GI50,[1],12.8 µM
same,TGI,[1],> 100 µM
same,GI50,[2],> 100 µM
same,TGI,[2],> 100 µM
same,GI50,[3],> 100 µM
same,TGI,[3],> 100 µM
same,GI50,[4],4.08 µM
same,TGI,[4],> 100 µM
same,GI50,[58],4.29 µM
same,TGI,[58],> 100 µM
same,GI50,[5],4.58 µM
same,TGI,[5],> 100 µM
same,GI50,[6],> 100 µM
same,TGI,[6],> 100 µM
same,GI50,[7],> 100 µM
same,TGI,[7],> 100 µM
same,GI50,[9],8.82 µM
same,TGI,[9],> 100 µM
same,GI50,[10],> 100 µM
same,TGI,[10],> 100 µM
same,GI50,[11],> 100 µM
same,TGI,[11],> 100 µM
same,GI50,[12],> 100 µM
same,TGI,[12],> 100 µM
same,GI50,[13],> 100 µM
same,TGI,[13],> 100 µM
same,GI50,[14],3.7 µM
same,TGI,[14],41.5 µM
same,GI50,[15],2.65 µM
same,TGI,[15],52.6 µM
same,GI50,[16],3 µM
same,TGI,[16],65 µM
same,GI50,[17],> 100 µM
same,TGI,[17],> 100 µM
same,GI50,[18],2.6 µM
same,TGI,[18],> 100 µM
same,GI50,[19],> 100 µM
same,TGI,[19],> 100 µM
same,GI50,[20],> 100 µM
same,TGI,[20],> 100 µM
same,GI50,[22],> 100 µM
same,TGI,[22],> 100 µM
same,GI50,[23],5.46 µM
same,TGI,[23],> 100 µM
same,GI50,[24],1.89 µM
same,TGI,[24],> 100 µM
same,GI50,[25],3.66 µM
same,TGI,[25],50.5 µM
same,GI50,[26],> 100 µM
same,TGI,[26],> 100 µM
same,GI50,[27],4.07 µM
same,TGI,[27],> 100 µM
same,GI50,[28],> 100 µM
same,TGI,[28],> 100 µM
same,GI50,[29],2.56 µM
same,TGI,[29],24.8 µM
same,GI50,[30],5.05 µM
same,TGI,[30],> 100 µM
same,GI50,[31],4.06 µM
same,TGI,[31],> 100 µM
same,GI50,[32],6.25 µM
same,TGI,[32],> 100 µM
same,GI50,[33],4.18 µM
same,TGI,[33],> 100 µM
same,GI50,[34],2.78 µM
same,TGI,[34],29.3 µM
same,GI50,[35],> 100 µM
same,TGI,[35],> 100 µM
same,GI50,[36],4.61 µM
same,TGI,[36],> 100 µM
same,GI50,[39],3.17 µM
same,TGI,[39],12 µM
same,GI50,[40],5.88 µM
same,TGI,[40],> 100 µM
same,GI50,[41],4.03 µM
same,TGI,[41],> 100 µM
same,GI50,[42],3.26 µM
same,TGI,[42],18.6 µM
same,GI50,[43],16.6 µM
same,TGI,[43],> 100 µM
same,GI50,[44],> 100 µM
same,TGI,[44],> 100 µM
same,GI50,[45],9.02 µM
same,TGI,[45],> 100 µM
same,GI50,[46],6.04 µM
same,TGI,[46],> 100 µM
same,GI50,[47],5.8 µM
same,TGI,[47],> 100 µM
same,GI50,[48],5.06 µM
same,TGI,[48],44.1 µM
same,GI50,[50],> 100 µM
same,TGI,[50],> 100 µM
same,GI50,[51],> 100 µM
same,TGI,[51],> 100 µM
same,GI50,[52],2.75 µM
same,TGI,[52],> 100 µM
same,GI50,[53],5.88 µM
same,TGI,[53],> 100 µM
same,GI50,[54],3.94 µM
same,TGI,[54],> 100 µM
same,GI50,[55],> 100 µM
same,TGI,[55],> 100 µM
same,GI50,[56],20.9 µM
same,TGI,[56],> 100 µM
same,GI50,[57],8.22 µM
same,TGI,[57],> 100 µM
